Assay results as given in patent US20040152191A1 (priority 2001, published 2004).

Experiments:
Type in all cases: cell-based
Langerhans cells = assay: Differentiation of Langerhans cells from cord blood CD34+ cells (Example 4); conditions: D12; GM-CSF with TNF-α 2.5 ng/ml or RU 41740 10 μg/ml for 12 days
From the text: The stem cells are obtained after a passage of cord blood through a Ficoll gradient. The mononucleated CD34+ cells are purified by positive selection with an anti-CD34 monoclonal antibody (Immu 133.3, Immunotech Marseille, France). After purification, more than 90% of the cells are CD34+.
At the end of the culture period at D12, the cells are labelled with the anti-CD1a, CD14, Lag, E-cadherin, DR and DQ antibodies so as to identify the Langerhans cells which are Lag+, CD1a+, CD14−, DR+ and DQ+.

[1] = tested on: CD34+ cells of human cord blood; assay: Production of dendritic cells from CD34+ cells of human cord blood, cell markers (Example 3); conditions: TNF-α 200 IU/ml or RU 41740 10 μg/ml until D6
From the text: The experimental conditions are similar to Example 2, except the fact that the cells are derived from cord blood:
Purification: After Ficoll, the CD34+ cells represent 0.83% of the mononucleated cells (MNC).
After purification by positive selection, 18.1% of CD34+ are obtained.
Duplication: on D6, D7,D8, D10 and D12.

[2] = tested on: dendritic cells derived from human monocytes; assay: Maturation of dendritic cells from human monocytes, surface markers by flow cytometry (Example 1); conditions: D8, TNF-alpha 200 IU/ml
Protocol: Peripheral blood is taken from the subject concerned. This blood is then centrifuged for 20 minutes at 200 g so as to diminish the contamination of the peripheral blood cells by platelets. The upper part containing most of the platelets and the plasma is carefully removed before the mononucleated cells are purified by centrifuging them on a Ficoll separation gradient, the density of which is 1.077. The layer of mononucleated cells is recovered, then washed twice with PBS buffer and deposited on a gradient containing 4 discontinuous densities of Percoll in order to isolate the monocytes. This gradient is constituted by concentrations of Percoll in isotonic solution of 75% (6.5 ml), 50.5% (15 ml), 40% (3.5 ml) and 30% (3 ml) in a Dulbecco medium without magnesium nor calcium and containing 5% human serum. 75 to 100 millions of cells are thus deposited in each tube and centrifuged at 1000 g during 25 minutes at 4° C. The low density cells, principally the monocytes, are harvested at the interface between the concentrations 40% and 50.5%, and washed twice with PBS. They are then resuspended in a culture medium, then deposited on culture plates containing 6 wells at a density of 5×10^6 cells per well in a final volume of 3 ml and left to adhere for 1 hour at 37° C. This adhesion step can be replaced by an additional purification of the monocytes by means of a negative purification system using a mixture of monoclonal antibodies combining an anti-CD3, CD7, CD19, CD45A, CD56 and anti-IgG with the aid of a Macs type microbead system (Miltenyi Biotec).
The cells are then placed in culture in culture wells at 37° C. under 5% CO2. The medium which consists of RPMI contains 200 IU/ml of recombinant human GM-CSF and 500 IU/ml of recombinant human IL-4 in a final volume of 6 ml. On day 3 and day 5, the cultures are renewed by removing 3 ml and adding 3 ml of fresh medium with the cytokines. […] The cells are harvested on day 8, washed and cultivated in the absence of stimulation for a further 3 days.
At the end of the culture period, the quality of the maturation is assessed by measuring the expression of the molecules CD80, 83, 86, 14, 1a, HLA-DR at the surface of the cells.

In the case of TNF-α, the “CD1a+ DR+ cells” value (Langerhans cells) is reported as 8%, the “Lag+ DR+ cells” value (Langerhans cells) is reported as 5.2% and the “CD1a, percentage of labelled cells” value ([1]; D7) is reported as 4.41%. The “CD14, percentage of labelled cells” value ([1]; D7) was 32%, the “CD16, percentage of labelled cells” value ([1]; D7) was 2.24% and the “CD34, percentage of labelled cells” value ([1]; D7) was 19.79%. The “CD45, percentage of labelled cells” value ([1]; D7) was 99.84%, the “CD83, percentage of labelled cells” value ([1]; D7) was 1.09% and the “CD86, percentage of labelled cells” value ([1]; D7) was 11.61%. The “CD1a, percentage of labelled cells” value ([1]; D9) was 23.75%, the “CD14, percentage of labelled cells” value ([1]; D9) was 59.6% and the “CD16, percentage of labelled cells” value ([1]; D9) was 2.16%. For the same substance, the “CD34, percentage of labelled cells” value ([1]; D9) was 2.53%, the “CD45, percentage of labelled cells” value ([1]; D9) was 99.96% and the “CD83, percentage of labelled cells” value ([1]; D9) was 4.24%. For the same substance, the “CD86, percentage of labelled cells” value ([1]; D9) was 22.23%, the “CD1a, percentage of labelled cells” value ([1]; D10) was 20.63% and the “CD14, percentage of labelled cells” value ([1]; D10) was 60%. For the same substance, the “CD16, percentage of labelled cells” value ([1]; D10) was 2.11%, the “CD34, percentage of labelled cells” value ([1]; D10) was 2.26% and the “CD45, percentage of labelled cells” value ([1]; D10) was 99.97%. The “CD83, percentage of labelled cells” value ([1]; D10) was 2.46%, the “CD86, percentage of labelled cells” value ([1]; D10) was 9.23% and the “CD1a, percentage of labelled cells” value ([1]; D12) was 27.9%. For the same substance, the “CD14, percentage of labelled cells” value ([1]; D12) was 66.77%, the “CD34, percentage of labelled cells” value ([1]; D12) was 0.69% and the “CD40, percentage of labelled cells” value ([1]; D12) was 75.91%. The “CD45, percentage of labelled cells” value ([1]; D12) was 99.85%, the “CD54, percentage of labelled cells” value ([1]; D12) was 74.66% and the “CD83, percentage of labelled cells” value ([1]; D12) was 0.71%. For the same substance, the “CD86, percentage of labelled cells” value ([1]; D12) was 13.94%, the “HLA-DR, percentage of labelled cells” value ([1]; D12) was 81.34% and the “CD1a, percentage of labelled cells” value ([1]; D13) was 36.13%. For the same substance, the “CD14, percentage of labelled cells” value ([1]; D13) was 57.73%, the “CD34, percentage of labelled cells” value ([1]; D13) was 0.45% and the “CD40, percentage of labelled cells” value ([1]; D13) was 63.35%. For the same substance, the “CD45, percentage of labelled cells” value ([1]; D13) was 99.69%, the “CD54, percentage of labelled cells” value ([1]; D13) was 61.7% and the “CD83, percentage of labelled cells” value ([1]; D13) was 3.19%. The “CD86, percentage of labelled cells” value ([1]; D13) was 12.78%, the “HLA-DR, percentage of labelled cells” value ([1]; D13) was 73.04% and the “CD1a, percentage of labelled cells” value ([1]; D14) was 34.2%. For the same substance, the “CD14, percentage of labelled cells” value ([1]; D14) was 46.77%, the “CD34, percentage of labelled cells” value ([1]; D14) was 0.38% and the “CD40, percentage of labelled cells” value ([1]; D14) was 64.56%. For the same substance, the “CD45, percentage of labelled cells” value ([1]; D14) was 99.93%, the “CD54, percentage of labelled cells” value ([1]; D14) was 64.4% and the “CD83, percentage of labelled cells” value ([1]; D14) was 1.22%. The “CD86, percentage of labelled cells” value ([1]; D14) was 19.33%, the “HLA-DR, percentage of labelled cells” value ([1]; D14) was 57.84% and the “CD14, % of labelled cells” value ([2]; experiment a) was 0.87%. The “CD40, MFI” value ([2]; experiment a) was 1603, the “CD54, % of labelled cells” value ([2]; experiment a) was 97.4% and the “CD54, MFI” value ([2]; experiment a) was 295. For the same substance, the “CD80, % of labelled cells” value ([2]; experiment a) was 62.1%, the “CD80, MFI” value ([2]; experiment a) was 129 and the “CD83, % of labelled cells” value ([2]; experiment a) was 84.5%. The “CD83, MFI” value ([2]; experiment a) was 173, the “CD86, % of labelled cells” value ([2]; experiment a) was 98.8% and the “CD86, MFI” value ([2]; experiment a) was 326. The “HLA-DQ, % of labelled cells” value ([2]; experiment a) was 84.3%, the “HLA-DQ, MFI” value ([2]; experiment a) was 157 and the “HLA-DR, % of labelled cells” value ([2]; experiment a) was 98.9%. The “HLA-DR, MFI” value ([2]; experiment a) was 1225, the “CD1a, % of labelled cells” value ([2]; experiment b) was 0.21% and the “CD14, % of labelled cells” value ([2]; experiment b) was 0.61%. The “CD40, % of labelled cells” value ([2]; experiment b) was 99.6%, the “CD40, MFI” value ([2]; experiment b) was 1728 and the “CD54, % of labelled cells” value ([2]; experiment b) was 95.6%. For the same substance, the “CD54, MFI” value ([2]; experiment b) was 255, the “CD80, % of labelled cells” value ([2]; experiment b) was 70.5% and the “CD80, MFI” value ([2]; experiment b) was 93.5. For the same substance, the “CD83, % of labelled cells” value ([2]; experiment b) was 89.5%, the “CD83, MFI” value ([2]; experiment b) was 196 and the “CD86, % of labelled cells” value ([2]; experiment b) was 99.5%. The “CD86, MFI” value ([2]; experiment b) was 273, the “HLA-DQ, % of labelled cells” value ([2]; experiment b) was 84.2% and the “HLA-DQ, MFI” value ([2]; experiment b) was 183. The “HLA-DR, % of labelled cells” value ([2]; experiment b) was 99.1%, the “HLA-DR, MFI” value ([2]; experiment b) was 946 and the “CD14, % of labelled cells” value ([2]; experiment c) was 3.27%. For the same substance, the “CD40, % of labelled cells” value ([2]; experiment c) was 99.3%, the “CD40, MFI” value ([2]; experiment c) was 1480 and the “CD54, % of labelled cells” value ([2]; experiment c) was 98.2%. The “CD54, MFI” value ([2]; experiment c) was 249, the “CD83, % of labelled cells” value ([2]; experiment c) was 89% and the “CD83, MFI” value ([2]; experiment c) was 166. The “CD86, % of labelled cells” value ([2]; experiment c) was 99.5%, the “CD86, MFI” value ([2]; experiment c) was 284 and the “HLA-DR, % of labelled cells” value ([2]; experiment c) was 99.4%. The “HLA-DR, MFI” value ([2]; experiment c) was 694.
